Reference: patent publication US12172975B2, “1H-indazole carboxamides as receptor-interacting protein kinase 1 inhibitors (RIPK1)” (BRISTOL-MYERS SQUIBB COMPANY, priority 2018, dated 2024)
pIC50: −log10 of the molar value. Counter-ions that a name gives are not always drawn. Like-named read-outs stand apart in the source and are kept apart here.

Experiments:
[1] = tested on: MLKL phosphorylation in HT29-L23 human colorectal adenocarcinoma cells; experiment: MLKL Phosphorylation High-Content Assay; format: cell-based; conditions: necroptosis induced with TNFα, SMAC mimetic and Z-VAD, 6 h, read-out: pMLKL (IC50)
Summary of the method: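 Following fixation and staining for phospho-S358 MLKL with Hoechst nuclear counterstain, high-content imaging quantified phosphorylation in HT29-L23 cells challenged 6 h with TNFα 35 ng/mL, SMAC mimetic 700 nM and Z-VAD 140 nM. Nec-1s at 6.25 μM defined full inhibition; 4-parameter logistic fits yielded IC50 and Ymax.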

[2] = target: His-GST-TVMV-hRIPK1 (1-324) (Homo sapiens (Human), UniProt Q13546); experiment: RIPK1 HTRF Binding Assay; conditions: read-out: RIPK1 HTRF (IC50); FRET probe displacement, 1 h at rt
His-GST-TVMV-hRIPK1 (1-324), sequence (Q13546 1-324): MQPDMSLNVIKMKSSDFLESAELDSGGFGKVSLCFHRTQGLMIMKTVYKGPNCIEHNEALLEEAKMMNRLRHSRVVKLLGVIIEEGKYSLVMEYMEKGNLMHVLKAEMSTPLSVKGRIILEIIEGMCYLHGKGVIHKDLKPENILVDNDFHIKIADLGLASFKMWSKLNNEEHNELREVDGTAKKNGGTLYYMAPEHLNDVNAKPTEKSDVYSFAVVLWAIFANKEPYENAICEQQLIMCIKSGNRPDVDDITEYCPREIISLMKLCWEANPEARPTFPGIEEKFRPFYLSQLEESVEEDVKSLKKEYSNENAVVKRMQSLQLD
Description: A solution was prepared containing 0.2 nM Anti GST-Tb (Cisbio, 61GSTTLB), 90.6 nM probe and 1 nM His-GST-TVMV-hRIPK1 (1-324) in FRET Buffer (20 mM HEPES, 10 mM MgCl2, 0.015% Brij-35, 4 mM DTT, 0.05 mg/mL BSA). Using Formulatrix Tempest, the detection antibody/enzyme/probe solution (2 mL) was dispensed into wells of a 1536 plate (Black Low Binding Polystyrene 1536 Plate (Corning, 3724)) containing 10 nL of compounds of interest at appropriate concentration in DMSO. The plate was incubated at rt for 1 h. FRET was measured using the EnVision plate reader (Excitation: 340 nm, Emission: 520 nm/495 nM). Total signal (0% inhibition) was calculated from wells containing 10 nL DMSO only.

SMILES	pIC50 [1]	pIC50 [2]	pIC50 ([1]; Homo sapiens)
COc1ncc(-c2ccc3c(C(=O)NC4CC4)n[nH]c3c2)cc1C(=O)N[C@@H](C)c1cc(OC(F)(F)F)ccc1F [Example 206, N-cyclopropyl-6-(5-{[(1S)-1-[2-fluoro-5-(trifluoromethoxy)-phenyl](2,2,2-deutero)ethyl]-carbamoyl}-6-(deutero)methoxy-pyridin-3-yl)-1H-indazole-3-carboxamide]	8.42	6.66	–
COc1ncc(-c2ccc3c(C(=O)NC4CC(=O)N(C(C)C)C4)n[nH]c3c2)cc1C(=O)NCc1ccccc1OC(F)(F)F (centres unmarked) [Example 181, 6-[6-methoxy-5-({[2-(trifluoro-methoxy)phenyl]methyl}carbam-oyl)pyridin-3-yl]-N-[5-oxo-1-(propan-2-yl)pyrrolidin-3-yl]-1H-indazole-3-carboxamide, TFA]	–	7.57	7.09
[2H]C([2H])([2H])Oc1ncc(-c2ccc3c(C(=O)NC4CC4)n[nH]c3c2)cc1C(=O)N[C@H](C)c1cccc(C(F)(F)F)c1 [Example 210, N-cyclopropyl-6-[6-(deutero)meth-oxy-5-{[(1R)-1-[3-(trifluorometh-yl)phenyl]ethyl]carbamoyl}pyridin-3-yl]-1H-indazole-3-carboxamide]	–	6.35	7.06
[2H]C([2H])([2H])Oc1ncc(-c2ccc3c(C(=O)NCC4CC4)n[nH]c3c2)cc1C(=O)NCCC(=O)OC(C)(C)C [Example 165, tert-butyl 3-[(5-{3-[(cyclopropyl-methyl)carbamoyl]-1H-indazol-6-yl}-2-(deutero)methoxypyridin-3-yl)formamido]propanoate]	–	6.85	7.82
CNC(=O)c1n[nH]c2cc(-c3cnc(OC)c(C(=O)NCc4ccccc4NC(=O)OC(C)(C)C)c3)ccc12 [Example 73, tert-butyl-N-{2-[({2-methoxy-5-[3-(methylcarbamoyl)-1H-indazol-6-yl]pyridin-3-yl}-formamido)methyl]phenyl}-carbamate]	–	8.33	6.92
CNC(=O)c1n[nH]c2cc(-c3cnc(OC)c(C(=O)NCCCOC4CCCCC4)c3)ccc12 [Example 62, 6-(5-{[3-(cyclohexyloxy)-propyl]carbamoyl}-6-methoxy-pyridin-3-yl)-N-methyl-1H-indazole-3-carboxamide]	–	8.17	7.59
COc1ncc(-c2ccc3c(C(=O)NC4CC4)n[nH]c3c2)cc1C(=O)N[C@@H]1CN(C(=O)C2CCC(F)(F)C2)C[C@@H]1F (stereo partly drawn) [Example 199, N-cyclopropyl-6-(5-{[(3R,4S)-1-(3,3-difluorocyclopentanecarbon-yl)-4-fluoropyrrolidin-3-yl]-carbamoyl}-6-(deutero)methoxy-pyridin-3-yl)-1H-indazole-3-carboxamide, TFA]	7.00	6.47	–
CNC(=O)c1n[nH]c2cc(-c3cnc(OC)c(C(=O)NC4CCCC(C(=O)N5CC(F)(F)C5)C4)c3)ccc12 (centres unmarked) [Example 132, 6-(5-{[3-(3,3-difluoroazet-idine-1-carbonyl)cyclohexyl]-carbamoyl}-6-methoxypyridin-3-yl)-N-methyl-1H-indazole-3-carboxamide, TFA]	6.85	7.46	–
CCCN(C)C(=O)C1CCCC(NC(=O)c2cc(-c3ccc4c(C(=O)NC)n[nH]c4c3)cnc2OC)C1 (centres unmarked) [Example 100, 6-[6-methoxy-5-({3-[methyl-(propyl)carbamoyl]cyclo-hexyl}carbamoyl)pyridin-3-yl]-N-methyl-1H-indazole-3-carboxamide]	–	7.74	7.20
COc1ncc(-c2ccc3c(C(=O)NC4CC4)n[nH]c3c2)cc1C(=O)N[C@@H](C)c1cc(C(F)(F)F)ccc1F [Example 208, N-cyclopropyl-6-(5-{[(1S)-1-[2-fluoro-5-(trifluoromethyl)phenyl]-(2,2,2-deutero)ethyl]carbamoyl}-6-(deutero)methoxypyridin-3-yl)-1H-indazole-3-carboxamide, TFA]	7.74	7.57	–
CNC(=O)c1n[nH]c2cc(-c3cnc(OC)c(C(=O)NCc4ncccc4OCC4CCC4)c3)ccc12 [Example 117, 6-[5-({[3-(cyclobutylmethoxy)-pyridin-2-yl]methyl}carbam-oyl)-6-methoxypyridin-3-yl]-N-methyl-1H-indazole-3-carboxamide, TFA]	7.96	8.59	–
CNC(=O)c1n[nH]c2cc(-c3cnc(OC)c(C(=O)NC4CCCC(Oc5ccccc5)C4)c3)ccc12 (centres unmarked) [Example 118, 6-{6-methoxy-5-[(3-phenoxy-cyclohexyl)carbamoyl]pyridin-3-yl}-N-methyl-1H-indazole-3-carboxamide]	–	8.21	8.59
CNC(=O)c1n[nH]c2cc(-c3cnc(OC)c(C(=O)NCC(C)(C)C(=O)OC(C)(C)C)c3)ccc12 [Example 90, tert-butyl 3-({2-methoxy-5-[3-(methylcarbamoyl)-1H-indazol-6-yl]pyridin-3-yl}-formamido)-2,2-dimethyl-propanoate]	–	7.80	7.33
COc1ncc(-c2ccc3c(C(=O)NC4CC(=O)N(C)C4)n[nH]c3c2)cc1C(=O)NCc1ccccc1OC(F)(F)F (centres unmarked) [Example 187, 6-[6-methoxy-5-({[2-(trifluoro-methoxy)phenyl]methyl}-carbamoyl)pyridin-3-yl]-N-(1-methyl-5-oxopyrrolidin-3-yl)-1H-indazole-3-carboxamide, TFA]	–	7.55	7.11
CNC(=O)c1n[nH]c2cc(-c3cnc(OC)c(C(=O)NCCCOc4ccc(F)cc4)c3)ccc12 [Example 63, 6-(5-{[3-(4-fluorophenoxy)-propyl]carbamoyl}-6-methoxy-pyridin-3-yl)-N-methyl-1H-indazole-3-carboxamide]	–	8.64	7.80
CNC(=O)c1n[nH]c2cc(-c3cnc(OC)c(C(=O)NC4CCCC(C(=O)N(C)C5CC5)C4)c3)ccc12 (centres unmarked) [Example 125, 6-[5-({3-[cyclopropyl(methyl)-carbamoyl]cyclohexyl}carbam-oyl)-6-methoxypyridin-3-yl]-N-methyl-1H-indazole-3-carbox-amide]	8.06	7.92	–
[2H]C([2H])([2H])Oc1ncc(-c2ccc3c(C(=O)NC4CC(F)(F)C4)n[nH]c3c2)cc1C(=O)N[C@@H]1CN(C(=O)C2CC(F)(F)C2)C[C@@H]1F [Example 191, 6-(5-{[(3R,4S)-1-(3,3-difluorocyclo-butanecarbonyl)-4-fluoropyrrolidin-3-yl]carbamoyl}-6-(deutero)methoxy-pyridin-3-yl)-N-(3,3-difluorocyclo-butyl)-1H-indazole-3-carboxamide]	–	6.92	7.05
CNC(=O)c1n[nH]c2cc(-c3cnc(OC)c(C(=O)NCC4CCCCC4)c3)ccc12 [Example 138, 6-{5-[(cyclohexylmethyl)-carbamoyl]-6-methoxy-pyridin-3-yl}-N-methyl-1H-indazole-3-carboxamide]	–	7.92	7.05
[2H]C([2H])([2H])Oc1ncc(-c2ccc3c(C(=O)NC4CCC(N(C([2H])([2H])[2H])C([2H])([2H])[2H])CC4)n[nH]c3c2)cc1C(=O)NC(C)c1cccc(OC(F)(F)F)c1 (centres unmarked) [Example 23, N-(4-(dimethyld6-amino)cyclohexyl)-6-(6-methoxyd3-5-((1-(3-(trifluoromethoxy)phenyl)ethyl)carbamoyl)pyridin-3-yl)-1H-indazole-3-carboxamide]	–	7.62	6.85
CNC(=O)c1n[nH]c2cc(-c3cc(C(=O)NC(C)c4ccccc4OC(F)(F)F)c(OC)nc3C)ccc12 (centres unmarked) [Example 158, 6-[6-methoxy-2-methyl-5-({1-[2-(trifluoromethoxy)-phenyl]ethyl}carbamoyl)-pyridin-3-yl]-N-methyl-1H-indazole-3-carboxamide]	–	7.46	7.68
[2H]C([2H])([2H])Oc1ncc(-c2ccc3c(C(=O)NC([2H])([2H])C([2H])([2H])[2H])n[nH]c3c2)cc1C(=O)N[C@H](C)c1ccccc1OC(F)(F)F [Example 2, (R)—N-(ethyl-d5)-6-(6-(methoxy-d3)-5-((1-(2-(trifluoromethoxy)phenyl)ethyl)carbamoyl)pyridin-3-yl)-1H-indazole-3-carboxamide]	–	8.26	8.46
CCN(C)C(=O)C1CCCC(NC(=O)c2cc(-c3ccc4c(C(=O)NC)n[nH]c4c3)cnc2OC)C1 (centres unmarked) [Example 122, 6-[5-({3-[ethyl(methyl)carbam-oyl]cyclohexyl}carbamoyl)-6-methoxypyridin-3-yl]-N-methyl-1H-indazole-3-carboxamide]	6.92	7.92	–
[2H]C([2H])([2H])NC(=O)c1n[nH]c2cc(-c3cnc(OC)c(C(=O)NCCC(=O)OC(C)(C)C)c3)ccc12 [Example 150, tert-butyl 3-[(2-methoxy-5-{3-[(deutero)methylcarbamoyl]-1H-indazol-6-yl}pyridin-3-yl)-formamido]propanoate]	–	7.49	6.96
CCNC(=O)c1n[nH]c2cc(-c3cnc(OC)c(C(=O)NCc4ccccc4OC(F)(F)F)c3)ccc12 [Example 170, N-ethyl-6-[6-methoxy-5-({[2-(trifluoromethoxy)phenyl]-methyl}carbamoyl)pyridin-3-yl]-1H-indazole-3-carboxamide]	–	8.10	7.64
COc1ncc(-c2ccc3c(C(=O)NC4CC4)n[nH]c3c2)cc1C(=O)N[C@H](C)c1cccc(OC(F)(F)F)c1 [Example 205, N-cyclopropyl-6-[6-(deutero)-methoxy-5-{[(1R)-1-[3-(trifluoro-methoxy)phenyl](2,2,2-deutero)-ethyl]carbamoyl}pyridin-3-yl]-1H-indazole-3-carboxamide, TFA]	7.22	7.70	–
